# Literature values, collected in US20210123869A1, “METHOD FOR MEASURING PH OF TEST WATER” (MIURA CO., LTD., priority 2018, published 2021).
# Conditions: value at 25° C.; two values for reagents acid-dissociated in two stages
row,Compound,acid dissociation constant (pKa)
1,Cc1c(C2(c3cc(Br)c(O)c(Br)c3C)OS(=O)(=O)c3ccccc32)cc(Br)c(O)c1Br [bromocresol green],4.7
2,Cc1cc(C2(c3cc(C)c(O)c(Br)c3)OS(=O)(=O)c3ccccc32)cc(Br)c1O [bromocresol purple],6.3
3,alizarin yellow,11.06
